Toxic doses and inconclusive results are not listed.
System: L1210 leukemia ip in BDF1 mice, survival T/C
Experiment: NCI In Vivo Anticancer Drug Screen. Data for tumor model L1210 Leukemia (intraperitoneal) in B6D2F1 (BDF1) mice
Conditions: endpoint: mean survival time, higher = longer survival
Procedure, shortened: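 Survival endpoint. Drug-treated group vs vehicle group, expressed as T divided by C. Tumor passaged by transplantation.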

[1] = dose: 50.0 mg/kg/injection, schedule: Q01DX009 (ip), vehicle: saline
[2] = dose: 100.0 mg/kg/injection, schedule: Q04DX003 (ip), vehicle: saline
[3] = dose: 200.0 mg/kg/injection, schedule: Q04DX003 (ip), vehicle: saline
[4] = dose: 100.0 mg/kg/injection, schedule: Q01DX009 (ip), vehicle: saline with Tween-80
[5] = dose: 200.0 mg/kg/injection, schedule: Q01DX009 (ip), vehicle: saline with Tween-80
[6] = dose: 400.0 mg/kg/injection, schedule: Q01DX009 (ip), vehicle: saline with Tween-80

`COc1cc(C(=O)O)c(C(=O)O)cc1OC` was tested, and the T/C (dose: 12.5 mg/kg/injection, schedule: Q01DX001 (ip), vehicle: Klucel (hydroxypropylcellulose) (HPC)) was 104 % of control, the T/C (dose: 12.5 mg/kg/injection, schedule: Q01DX009 (ip), vehicle: saline) was 101 % of control and the T/C (dose: 25.0 mg/kg/injection, schedule: Q01DX001 (ip), vehicle: Klucel (hydroxypropylcellulose) (HPC)) was 108 % of control. The T/C (dose: 25.0 mg/kg/injection, schedule: Q01DX009 (ip), vehicle: saline) was 103 % of control, the T/C (dose: 50.0 mg/kg/injection, schedule: Q01DX001 (ip), vehicle: Klucel (hydroxypropylcellulose) (HPC)) was 101 % of control and the T/C [1] was 104 % of control. The T/C (dose: 75.0 mg/kg/injection, schedule: Q01DX009 (ip), vehicle: Klucel (hydroxypropylcellulose) (HPC)) was 97 % of control, the T/C (dose: 115.0 mg/kg/injection, schedule: Q01DX009 (ip), vehicle: Klucel (hydroxypropylcellulose) (HPC)) was 100 % of control and the T/C (dose: 170.0 mg/kg/injection, schedule: Q01DX009 (ip), vehicle: Klucel (hydroxypropylcellulose) (HPC)) was 100 % of control. The T/C (dose: 400.0 mg/kg/injection, schedule: Q01DX001 (ip), vehicle: Klucel (hydroxypropylcellulose) (HPC)) was 88 % of control.

With `CC(C)(C)OC(=O)NCC(=O)O` the T/C [1] was 93 % of control, the T/C (dose: 75.0 mg/kg/injection, schedule: Q01DX001 (ip), vehicle: acetone) was 93 % of control and the T/C (dose: 100.0 mg/kg/injection, schedule: Q01DX009 (ip), vehicle: saline) was 96 % of control. For the same compound, the T/C [2] was 97 % of control, the T/C (dose: 150.0 mg/kg/injection, schedule: Q01DX001 (ip), vehicle: acetone) was 99 % of control and the T/C (dose: 200.0 mg/kg/injection, schedule: Q01DX009 (ip), vehicle: saline) was 93 % of control. The T/C [3] was 106 % of control and the T/C (dose: 300.0 mg/kg/injection, schedule: Q01DX001 (ip), vehicle: acetone) was 103 % of control.

`O=C1c2ccccc2C(Cl)=C(Cl)C1(Cl)Cl` was tested, and the T/C (dose: 25.0 mg/kg/injection, schedule: Q01DX009 (ip), vehicle: Klucel (hydroxypropylcellulose) (HPC)) was 90 % of control, the T/C (dose: 50.0 mg/kg/injection, schedule: Q01DX009 (ip), vehicle: Klucel (hydroxypropylcellulose) (HPC)) was 90 % of control and the T/C (dose: 100.0 mg/kg/injection, schedule: Q01DX009 (ip), vehicle: Klucel (hydroxypropylcellulose) (HPC)) was 90 % of control. The T/C (dose: 100.0 mg/kg/injection, schedule: Q04DX003 (ip), vehicle: Klucel (hydroxypropylcellulose) (HPC)) was 96 % of control.

For `[Cl][Pt+2][Cl].[NH-]CC1CCCC[N-]1` (configuration not stated), the T/C (dose: 3.13 mg/kg/injection, schedule: Q04DX003 (ip), vehicle: saline) was 111 % of control, the T/C (dose: 6.25 mg/kg/injection, schedule: Q04DX003 (ip), vehicle: saline) was 108 % of control and the T/C (dose: 12.5 mg/kg/injection, schedule: Q04DX003 (ip), vehicle: saline) was 122 % of control. The T/C [2] was 163 % of control and the T/C [3] was 120 % of control.

With `CCOP(=O)(OCC)Oc1c(Cl)c(Cl)c(OC(=O)Nc2cc(Cl)ccc2Cl)c(Cl)c1Cl` the T/C (dose: 25.0 mg/kg/injection, schedule: Q04DX002 (ip), vehicle: saline with Tween-80) was 90 % of control, the T/C (dose: 50.0 mg/kg/injection, schedule: Q04DX002 (ip), vehicle: saline with Tween-80) was 97 % of control and the T/C (dose: 100.0 mg/kg/injection, schedule: Q04DX002 (ip), vehicle: saline with Tween-80) was 94 % of control.

`O=c1[nH]c2ccc(I)cc2c(=O)o1` was tested, and the T/C [4] was 100 % of control, the T/C [5] was 100 % of control and the T/C [6] was 101 % of control.

In the case of `NC(Cc1ccccc1)C(=O)CCl` (configuration not stated), the T/C (dose: 25.0 mg/kg/injection, schedule: Q04DX002 (ip), vehicle: saline) was 105 % of control and the T/C (dose: 50.0 mg/kg/injection, schedule: Q04DX002 (ip), vehicle: saline) was 108 % of control.

`CC(C)(c1ccccc1)C(C(=O)O)C(=O)O` was tested, and the T/C (dose: 75.0 mg/kg/injection, schedule: Q01DX001 (ip), vehicle: saline) was 98 % of control, the T/C (dose: 150.0 mg/kg/injection, schedule: Q01DX001 (ip), vehicle: saline) was 98 % of control and the T/C (dose: 300.0 mg/kg/injection, schedule: Q01DX001 (ip), vehicle: saline) was 102 % of control.

`CCCCC(CC)CCC(O)CC` (configuration not stated) was tested, and the T/C [4] was 98 % of control, the T/C (dose: 100.0 mg/kg/injection, schedule: Q04DX003 (ip), vehicle: saline with Tween-80) was 98 % of control and the T/C [5] was 101 % of control. The T/C (dose: 200.0 mg/kg/injection, schedule: Q04DX003 (ip), vehicle: saline with Tween-80) was 95 % of control, the T/C [6] was 97 % of control and the T/C (dose: 400.0 mg/kg/injection, schedule: Q04DX003 (ip), vehicle: saline with Tween-80) was 98 % of control.

`COc1ccc2c(c1)CCC1C2CCC2(C)C(=O)OC(=O)C12` (configuration not stated) was tested, and the T/C (dose: 100.0 mg/kg/injection, schedule: Q01DX009 (sc), vehicle: steriod suspending solution) was 109 % of control, the T/C (dose: 200.0 mg/kg/injection, schedule: Q01DX009 (sc), vehicle: steriod suspending solution) was 98 % of control and the T/C (dose: 400.0 mg/kg/injection, schedule: Q01DX009 (sc), vehicle: steriod suspending solution) was 103 % of control.

From PubChem BioAssay AID248 (DTP/NCI, 2004)
